Reference: patent US20240208950A1, “COMPOSITIONS AND METHODS FOR TREATMENT OF CERVICAL AND OVARIAN CANCER” (SOUTH DAKOTA BOARD OF REGENTS, priority 2021, published 2024)

Assays:
[1] = test system: CaSki cells; assay: Colony formation assay, CaSki; format: cell-based, human; details: CaSki, 2.5, 5 and 7.5 μM
Procedure: FIGS. 5A and 5B show representative colony images of CaSki cells (FIG. 5A) and SiHa cells (FIG. 5B) treated with various concentrations of ORM-Br ranging from […]. FIGS. 5C and 5D represent the quantification of colony formation in CaSki cells (FIG. 5C) and SiHa cells (FIG. 5D) treated with various concentrations of ORM-Br ranging from 0 to 7.5 μM.
To determine the effect of Br-ORM on clonogenic potential of CaSki and SiHa cells, a colony formation assay was performed. In brief, 500 cells were seeded per well in a 6-well plate and allowed to stand for the next three days. The cells were treated with Br-ORM with different concentrations (2.5, 5, and 7.5 μM) for seven days and then followed by normal growth media. […] Colonies were fixed in methanol, stained with haematoxylin, and counted using UVP 810 software.
FIG. 13. […] Cell viability was assessed by MTS assay. […] Bar graphs indicating quantification of colony formation in CaSki (i), and SiHa (ii) cells of cervical cancer with respect to vehicle control. […] Briefly, cervical cancer cells were treated with Br-ORM (10 μM) for 24 hours and the apoptosis inducing effect of Br-ORM was analyzed by Annexin V staining. […] The equal loading of protein in each lane was determined by probing the blots with β-actin antibody (FIG. 13F). […] Br-ORM arrests cell cycle in G1/S phase as determined by flow cytometry. […]

[2] = test system: HPV16 E6 and E7 transcripts in SiHa cells; assay: qPCR of HPV E6 and HPV E7 transcripts, SiHa; format: cell-based, human; details: 18 hours

**Q.** COc1ccc2c(c1)OC(C)(C)C(c1ccc(Br)cc1)C2c1ccc(OCCN2CCCC2)cc1 (stereo not drawn) [ORM-Br] was tested. Which “colony formation (clonogenic potential)” value [1] did it give?
**A.** suppresses the clonogenic potential

**Q.** And the “colony formation (clonogenic potential)” value ([1]; listed as Br-ORM)?
**A.** significantly decreased the number of colonies

**Q.** What about the “HPV16 E6 and E7 transcripts” value [2] of the same compound?
**A.** significant downregulation
